Test results as given in ChEMBL document CHEMBL1155973, “Disubstituted pyrimidines as Lck inhibitors” (Bioorg Med Chem Lett, 2009).

Columns and labels:
Jurkat = test: Inhibition of antigen-stimulated IL-2 production in human Jurkat cells expressing MART-1 antigen specific TCR; type: functional, cell-based
[1] = target: T1, Tyrosine-protein kinase Lck (Homo sapiens, UniProt P06239); test: Inhibition of Lck
[2] = target: T1, Tyrosine-protein kinase Lck; test: Inhibition of Lck kinase activity

T1 sequence (P06239 whole entry): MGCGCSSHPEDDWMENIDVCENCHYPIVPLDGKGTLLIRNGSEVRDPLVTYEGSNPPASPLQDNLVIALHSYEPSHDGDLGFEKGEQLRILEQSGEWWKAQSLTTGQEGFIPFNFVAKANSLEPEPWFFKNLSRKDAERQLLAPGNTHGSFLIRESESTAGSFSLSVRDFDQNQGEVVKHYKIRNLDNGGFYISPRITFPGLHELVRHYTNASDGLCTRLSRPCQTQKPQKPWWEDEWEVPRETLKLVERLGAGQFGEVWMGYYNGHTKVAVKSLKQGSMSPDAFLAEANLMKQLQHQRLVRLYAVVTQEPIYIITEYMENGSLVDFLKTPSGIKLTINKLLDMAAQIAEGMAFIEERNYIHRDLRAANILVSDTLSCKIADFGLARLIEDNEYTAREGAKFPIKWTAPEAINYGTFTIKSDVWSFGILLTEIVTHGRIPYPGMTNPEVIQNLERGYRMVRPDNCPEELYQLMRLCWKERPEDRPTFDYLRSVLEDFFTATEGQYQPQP

Row | SMILES | IC50 (Jurkat; Homo sapiens, Jurkat) | IC50 [1] | IC50 [2] | IC50 (Jurkat; jurkat)
1 | C[C@H](Nc1nccc(-n2cnc3ccccc32)n1)[C@@H]1CN(C(=O)Nc2cccc3ccccc23)CCN1c1ccncc1 | 546 nM | 0.2 nM | – | –
2 | O=C(OCc1ccccc1)N1CCCCC1CNc1nccc(-n2cnc3ccccc32)n1 (centres undefined) | – | > 20000 nM | – | –
3 | C[C@H](Nc1nccc(-n2cnc3cc(-c4ccnc(N)n4)ccc32)n1)c1ccccc1 | 111 nM | 1.5 nM | – | –
4 | C[C@H](Nc1nccc(-n2cnc3cc(-c4ccnc(N)n4)ccc32)n1)[C@@H]1CN(C(=O)Nc2cccc3ccccc23)CCN1C | 16 nM | 0.07 nM | – | –
5 | C[C@H](Nc1nccc(-n2cnc3ccccc32)n1)C1CCCCC1 | – | 243 nM | – | –
6 | CC(Nc1nccc(-n2cnc3ccccc32)n1)C1CCCN(C(=O)Nc2ccccc2)C1 (centres undefined) | – | 11 nM | – | –
7 | CCN1CCN(c2ccc3c(c2)ncn3-c2ccnc(N[C@@H](C)c3ccccc3)n2)C1=O | 167 nM | 1 nM | – | –
8 | CCOC(=O)CN1CCN(C(=O)Nc2cccc3ccccc23)C[C@H]1[C@H](C)Nc1nccc(-n2cnc3ccccc32)n1 | 847 nM | 0.45 nM | – | –
9 | Cc1ccc2c(c1)ncn2-c1ccnc(N[C@@H](C)c2ccccc2)n1 | – | 128 nM | 128 nM | –
10 | C[C@H](Nc1nccc(-n2cnc3ccccc32)n1)[C@@H]1CN(C(=O)Nc2cccc3ccccc23)CCN1C | 111 nM | 0.06 nM | – | –
11 | CN1CCN(C(=O)c2ccc3ccccc3c2)CC1CNc1nccc(-n2cnc3ccccc32)n1 (centres undefined) | – | 10 nM | – | –
12 | CCCCCCN1CCN(C(=O)Nc2cccc3ccccc23)C[C@H]1[C@H](C)Nc1nccc(-n2cnc3ccccc32)n1 | > 1000 nM | 1.8 nM | – | –
13 | CC(Nc1nccc(-n2cnc3ccccc32)n1)C1CCCN(C(=O)Cc2ccccc2)C1 (centres undefined) | – | 800 nM | – | –
14 | CC(Nc1nccc(-n2cnc3ccccc32)n1)C1CCCN(C(=O)Oc2ccccc2)C1 (centres undefined) | – | 46 nM | – | –
15 | Cc1ccc2ncn(-c3ccnc(N[C@@H](C)c4ccccc4)n3)c2c1 | – | 58 nM | 58 nM | –
16 | O=C(c1ccc2ccccc2c1)N1CCCC(CNc2nccc(-n3cnc4ccccc43)n2)C1 (centres undefined) | – | 106 nM | – | –
17 | c1ccc(CNc2nccc(-n3cnc4ccccc43)n2)cc1 | – | 827 nM | – | –
18 | CC(Nc1nccc(-n2cnc3ccccc32)n1)C1CN(C(=O)Nc2ccc3ccccc3c2)CCN1C (centres undefined) | > 1000 nM | 75.2 nM | – | –
19 | C[C@H](Nc1nccc(-n2cnc3ccccc32)n1)c1ccccc1 | – | 153 nM | – | –
20 | Cc1cc2ncn(-c3ccnc(N[C@@H](C)c4ccccc4)n3)c2cc1C | – | 2070 nM | 2070 nM | –
21 | CC(Nc1nccc(-n2cnc3ccccc32)n1)C1CN(S(C)(=O)=O)CCN1C (centres undefined) | > 1000 nM | 22.5 nM | – | –
22 | CC(Nc1nccc(-n2cnc3ccccc32)n1)C1CN(Cc2ccccc2)CCN1C (centres undefined) | > 10000 nM | 501 nM | – | –
23 | CCN1CCN(c2ccc3c(c2)ncn3-c2ccnc(N[C@@H](C)[C@@H]3CN(C(=O)Nc4cccc5ccccc45)CCN3C)n2)C1=O | 42 nM | 0.4 nM | – | –
24 | CC(C)CN1CCN(C(=O)Nc2cccc3ccccc23)C[C@H]1[C@H](C)Nc1nccc(-n2cnc3ccccc32)n1 | 538 nM | 0.2 nM | – | –
25 | CC(=O)N1CCN(C(=O)Nc2cccc3ccccc23)C[C@H]1[C@H](C)Nc1nccc(-n2cnc3ccccc32)n1 | > 10000 nM | 115 nM | – | –
26 | CC(Nc1nccc(-n2cnc3ccccc32)n1)C1CCCN(C(=O)NC2CCCCC2)C1 (centres undefined) | – | 1260 nM | – | –

Row | SMILES | IC50 (Jurkat; Homo sapiens, Jurkat) | IC50 [1] | IC50 [2] | IC50 (Jurkat; jurkat)
27 | CC(Nc1nccc(-n2cnc3ccccc32)n1)C1CN(C)CCN1C (centres undefined) | > 10000 nM | > 1000 nM | – | –
28 | O=C(OCc1ccccc1)N1CCC(CNc2nccc(-n3cnc4ccccc43)n2)CC1 | – | > 20000 nM | – | –
29 | C[C@H](Nc1nccc(-n2cnc3ccccc32)n1)[C@H]1CCCN(C(=O)Nc2cccc3ccccc23)C1 | – | 0.4 nM | – | –
30 | CCN1CCN(C(=O)Nc2cccc3ccccc23)C[C@H]1[C@H](C)Nc1nccc(-n2cnc3ccccc32)n1 | 154 nM | 0.07 nM | – | –
31 | CC(Nc1nccc(-n2cnc3ccccc32)n1)C1CN(C(=O)Nc2cccc3ccccc23)CCN1S(=O)(=O)c1ccccc1 (centres undefined) | > 10000 nM | 26.5 nM | – | –
32 | CC(Nc1nccc(-n2cnc3ccccc32)n1)C1CN(C(=O)Nc2cccc3ccccc23)CCN1C(=O)OCc1ccccc1 (centres undefined) | > 10000 nM | > 1000 nM | – | –
33 | C[C@H](Nc1nccc(-n2cnc3cc(-c4ccncc4)ccc32)n1)[C@@H]1CN(C(=O)Nc2cccc3ccccc23)CCN1C | 8 nM | 0.12 nM | – | –
34 | CC(Nc1nccc(-n2cnc3ccccc32)n1)C1CN(C(=O)Nc2cccc3ccccc23)CCN1Cc1ccccc1 (centres undefined) | > 1000 nM | 2.6 nM | – | –
35 | CC(Nc1nccc(-n2cnc3ccccc32)n1)C1CN(C(=O)Nc2cccc3ccccc23)CCN1S(C)(=O)=O (centres undefined) | > 1000 nM | 11.8 nM | – | –
36 | O=C(OCc1ccccc1)N1CCCC(CNc2nccc(-n3cnc4ccccc43)n2)C1 (centres undefined) | – | 650 nM | – | –
37 | C[C@@H](Nc1nccc(-n2cnc3ccccc32)n1)c1ccccc1 | – | 1770 nM | – | –
38 | CC(Nc1nccc(-n2cnc3ccccc32)n1)C1CNCCN1C (centres undefined) | > 10000 nM | > 1000 nM | – | –
39 | O=C(Nc1cccc2ccccc12)N1CCC(CNc2nccc(-n3cnc4ccccc43)n2)C1 (centres undefined) | – | > 10000 nM | – | –
40 | CC(Nc1nccc(-n2cnc3ccccc32)n1)C1CCCN(C(=O)Nc2ccc3ccccc3c2)C1 (centres undefined) | – | 40 nM | – | –
41 | CNC(=O)N1CCCC(C(C)Nc2nccc(-n3cnc4ccccc43)n2)C1 (centres undefined) | – | 242 nM | – | –
42 | C[C@H](Nc1nccc(-n2cnc3ccccc32)n1)c1cccc([N+](=O)[O-])c1 | – | 47 nM | – | –
43 | C[C@H](Nc1nccc(-n2cnc3cc(-c4ccncc4)ccc32)n1)c1ccccc1 | 98 nM | 3 nM | – | –
44 | O=C(c1ccc2ccccc2c1)N1CCOC(CNc2nccc(-n3cnc4ccccc43)n2)C1 (centres undefined) | – | 203 nM | – | –
45 | Cc1nc2ccccc2n1-c1ccnc(N[C@@H](C)c2ccccc2)n1 | – | > 20000 nM | > 20000 nM | –
46 | O=C(Nc1cccc2ccccc12)N1CCNC(CNc2nccc(-n3cnc4ccccc43)n2)C1 (centres undefined) | – | 110 nM | – | –
47 | CC(Nc1nccc(-n2cnc3ccccc32)n1)C1CCCN(C(=O)Nc2cccc3ccccc23)C1 (racemic) | – | 1 nM | – | –
48 | CC(Nc1nccc(-n2cnc3ccccc32)n1)C1CN(C(=O)Nc2cccc3ccccc23)CCN1C (single isomer, unassigned; diastereomer 1) | – | 0.25 nM | – | 361 nM
49 | CC(Nc1nccc(-n2cnc3ccccc32)n1)C1CN(C(=O)Nc2cccc3ccccc23)CCN1C (single isomer, unassigned; diastereomer 2) | – | 17.4 nM | – | > 1000 nM
50 | CC(Nc1nccc(-n2cnc3ccccc32)n1)C1CCCN(C(=O)OCc2ccccc2)C1 (stereo in doubt; 12a) | – | 144 nM | – | –
51 | CC(Nc1nccc(-n2cnc3ccccc32)n1)C1CCCN(C(=O)OCc2ccccc2)C1 (stereo in doubt; 12b) | – | 2720 nM | – | –
